Experimental findings from PubChem BioAssay (NCI) are described below.

The structures appear in SMILES notation.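 Five compound concentrations were applied to cells in 96-well plates for 48 hours; endpoints were derived by simple linear interpolation of the resulting dose-response curve. TGI denotes the concentration required for complete inhibition of growth.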

Test systems include HOP-62 NSCLC; RXF 393 renal; NCI-H226 lung; LOX IMVI melanoma; 786-0 renal; HCC-2998 colon; SF-295 CNS; KM12 colon; HT29 colon; SNB-19 CNS; TK-10 renal; EKVX NSCLC; COLO 205 colon; UACC-62 melanoma; U251 CNS; MOLT-4 leukemia; SF-539 CNS; OVCAR-8 ovarian.
What all share (assay): inhibition of tumour cell growth, NCI panel, 48 h

As to `COc1ccc(C2=Nc3ccccc3NC(=O)C2)cc1`, the TGI in the test on HOP-62 NSCLC is 45.6 µM; in the test with RXF 393 renal it was 46.2 µM; in the test on NCI-H226 lung, above 100 µM; in the test with LOX IMVI melanoma it was 37.1 µM; in the test with 786-0 renal, above 100 µM; with HCC-2998 colon, above 100 µM. Further, the TGI was 47.8 µM with SF-295 CNS; above 100 µM in the test with KM12 colon; above 100 µM in the test with HT29 colon; above 100 µM with SNB-19 CNS; 66.4 µM with TK-10 renal; above 100 µM in the test with EKVX NSCLC. Besides, the TGI in the test with COLO 205 colon is above 100 µM; in the test with UACC-62 melanoma it was above 100 µM; in the test with U251 CNS, 82.3 µM; in the test with MOLT-4 leukemia, above 100 µM; with SF-539 CNS, 65.6 µM; with OVCAR-8 ovarian, above 100 µM.

As for `O=C(CSc1nnc(-c2ccc(N=Cc3ccc(Cl)cc3)cc2)o1)Nc1ccc(Cl)cc1Cl`, the TGI with HOP-62 NSCLC was 74.5 µM; in the test on RXF 393 renal, above 100 µM; with NCI-H226 lung it was 58.2 µM; with 786-0 renal, 51.8 µM; in the test with HCC-2998 colon, above 100 µM; with SF-295 CNS, 68.1 µM. In addition, the TGI with KM12 colon was 72.4 µM; in the test on HT29 colon, 60.5 µM; in the test with SNB-19 CNS, 85 µM; in the test on TK-10 renal, above 100 µM; in the test with EKVX NSCLC, above 100 µM; with COLO 205 colon, 78 µM. The TGI with UACC-62 melanoma amounted to 60.3 µM; in the test with U251 CNS it was 69.9 µM; in the test on MOLT-4 leukemia, 66 µM; in the test on SF-539 CNS, 51.1 µM; with OVCAR-8 ovarian it was 83.7 µM.

In the case of `Nn1c(NNC(=O)C(=O)Nc2cc(Cl)c(Cl)cc2Cl)n[nH]c1=S`, the TGI with HOP-62 NSCLC, in the test on RXF 393 renal, with NCI-H226 lung, in the test on LOX IMVI melanoma, in the test on 786-0 renal and with HCC-2998 colon was above 100 µM in each case. The TGI with SF-295 CNS, in the test on KM12 colon, with HT29 colon, with SNB-19 CNS, with TK-10 renal and in the test on EKVX NSCLC was above 100 µM each time. The TGI in the test with COLO 205 colon, with UACC-62 melanoma, with U251 CNS, in the test on SF-539 CNS and in the test on OVCAR-8 ovarian was above 100 µM each time.

As for `CC1SC2=NC3=C(c4ccccc4C3=O)C(c3ccc(F)cc3)N2C1=O` (stereo unspecified), the TGI with HOP-62 NSCLC, with NCI-H226 lung, in the test on 786-0 renal, in the test with HCC-2998 colon, in the test on SF-295 CNS and with KM12 colon was above 100 µM each time. In addition, the TGI in the test with HT29 colon, in the test on SNB-19 CNS, with TK-10 renal, in the test on EKVX NSCLC, in the test on COLO 205 colon and in the test with UACC-62 melanoma was above 100 µM in each case. For the same compound, the TGI in the test with U251 CNS, in the test with MOLT-4 leukemia, in the test with SF-539 CNS and with OVCAR-8 ovarian was above 100 µM throughout.

In the case of `Cc1c(/C=N/NC(=O)c2cc(Br)cc(Br)c2O)c(=O)n(-c2ccccc2)n1C`, the TGI in the test with HOP-62 NSCLC, with NCI-H226 lung, with LOX IMVI melanoma, in the test with 786-0 renal, with HCC-2998 colon and in the test with SF-295 CNS was above 100 µM each time. Moreover, the TGI with KM12 colon, in the test on HT29 colon, in the test with SNB-19 CNS, with TK-10 renal, in the test on EKVX NSCLC and in the test on COLO 205 colon was above 100 µM each time. In addition, the TGI in the test on UACC-62 melanoma was 41.7 µM; with U251 CNS, above 100 µM; in the test on MOLT-4 leukemia, above 100 µM; in the test with SF-539 CNS, above 100 µM; in the test with OVCAR-8 ovarian, above 100 µM.

As to `O=C1[C@H]2ON(c3ccccc3)C(c3ccccc3Cl)[C@H]2C(=O)N1c1ccc(Cc2ccc(N3C(=O)[C@@H]4ON(c5ccccc5)C(c5ccccc5Cl)[C@@H]4C3=O)cc2)cc1` (stereo partly specified), the TGI in the test on HOP-62 NSCLC, with NCI-H226 lung, in the test with LOX IMVI melanoma, in the test with 786-0 renal, with HCC-2998 colon and with SF-295 CNS was above 100 µM in each case. For the same compound, the TGI in the test with KM12 colon, with HT29 colon, with SNB-19 CNS, in the test with TK-10 renal, with EKVX NSCLC and with COLO 205 colon was above 100 µM each time. For the same compound, the TGI in the test on UACC-62 melanoma, in the test with U251 CNS, with MOLT-4 leukemia, with SF-539 CNS and in the test with OVCAR-8 ovarian was above 100 µM in each case.

For `CC(=O)OCC1OC(OC2C(CSC3OC(COC(C)=O)C(OC(C)=O)C(OC(C)=O)C3OC(C)=O)OC(OC(C)=O)C(OC(C)=O)C2OC(C)=O)C(OC(C)=O)C(OC(C)=O)C1OC(C)=O` (stereo unspecified), the TGI in the test with HOP-62 NSCLC, in the test with NCI-H226 lung, in the test on LOX IMVI melanoma, with 786-0 renal, in the test with HCC-2998 colon and with SF-295 CNS was above 100 µM in each case. In addition, the TGI with KM12 colon, in the test on HT29 colon, in the test with SNB-19 CNS, in the test with TK-10 renal, in the test with EKVX NSCLC and with COLO 205 colon was above 100 µM throughout. Further, the TGI with UACC-62 melanoma, in the test on U251 CNS, with MOLT-4 leukemia, in the test on SF-539 CNS and in the test on OVCAR-8 ovarian was above 100 µM each time.

Turning to `NC1C[C@H](n2cc(/C=C/Br)c(=O)[nH]c2=O)C[C@@H]1CO` (stereo partly specified), the TGI in the test on HOP-62 NSCLC, in the test with RXF 393 renal, in the test on NCI-H226 lung, in the test with LOX IMVI melanoma, in the test with 786-0 renal and in the test on HCC-2998 colon was above 100 µM in each case. Also, the TGI in the test with SF-295 CNS, in the test with HT29 colon, in the test on SNB-19 CNS, in the test on TK-10 renal, in the test on EKVX NSCLC and with COLO 205 colon was above 100 µM each time. The TGI with UACC-62 melanoma, with U251 CNS, with MOLT-4 leukemia, with SF-539 CNS and in the test with OVCAR-8 ovarian was above 100 µM in each case.
